{"source": "patent US12329732B2", "about": "“Citrulline for treatment of sickle cell crisis” (Vanderbilt University, priority 2017, dated 2025)", "key": {"[1]": {"assay": "Pharmacokinetics of intravenous bolus citrulline in patients with sickle cell disease", "format": "in vivo, human", "conditions": "for clearance: iv", "description": "(§1) Background: Hemolysis associated nitric oxide (NO) depletion plays a central role in the pathogenesis of vaso-occlusion in sickle cell disease (SCD). Citrulline is an effective NO booster, even during conditions of inflammation and acute arginase-induced arginine deficiency, characteristic of SCD.\n(§2) Methods: Each cohort of participants received an intravenous bolus of 20 mg/kg of citrulline over five minutes with dose increments of 10 mg/kg until a target plasma citrulline level of 80 to 100 μmol/L. FIG. 1. Plasma samples were collected at certain time points for pharmacokinetic studies. Adverse events were followed according to the NCI Common Terminology Criteria for Adverse Events (CTCAE)."}, "[2]": {"assay": "Safety / adverse events (NCI CTCAE) of intravenous citrulline in patients with sickle cell disease", "format": "in vivo, human", "description": "as §1, §2"}, "[3]": {"assay": "Plasma arginine level after intravenous bolus citrulline in patients with sickle cell disease", "format": "in vivo, human", "conditions": "within one hour of bolus intravenous citrulline 20 mg/kg; all subjects", "description": "as §2"}, "[4]": {"assay": "Oral citrulline in ICU patients: reaching target citrulline level", "format": "in vivo, human", "conditions": "administered orally in an ICU", "source_text": "Oral administration of citrulline obligates the citrulline to pass through the gut and then the liver which removes the citrulline. This is due to the absorption of the citrulline from the gut and transport directly to the liver by the hepatic portal vein in the first pass through the patient's system. […] This would require multiple dosing regimen to achieve a therapeutic plasma level of citrulline. Thus, it is preferable for citrulline therapy to administer the active agent in a manner which bypasses the gut."}, "NO production": {"system": "NO production", "conditions": "acute arginase-induced arginine deficiency; cited from earlier work"}, "[5]": {"conditions": "oral twice daily, approximately 0.1 g/kg daily, steady state, cited from earlier work"}, "[6]": {"conditions": "normal volunteers; cited from earlier work"}, "[7]": {"conditions": "cited from earlier work"}, "[8]": {"conditions": "inhaled, versus placebo; cited from earlier work"}, "NO formation": {"system": "NO formation", "conditions": "oral arginine, cited from earlier work"}, "[9]": {"conditions": "children with VOC; cited from earlier work"}, "[10]": {"conditions": "Average of patients 1-4, 20 mg/kg intravenous bolus"}, "[11]": {"conditions": "bolus intravenous citrulline in patients with SCD"}, "[12]": {"conditions": "individual patients, 20 mg/kg intravenous bolus over 5 minutes, 20 mg/kg"}}, "note": "“And” between values parts separate entries of the source, which are not always exact repeats. Identical values can stand only once. Like-named read-outs stand apart in the source and are kept apart here.", "data": [{"smiles": "NC(=O)NCCCC(N)C(=O)O", "note": "(centres unmarked) [citrulline, 2-amino-5-(carbamoylamino)pentanoic acid]", "values": [{"measurement": "Krem", "setting": "[1]; [10]", "value": 1.06, "unit": "h⁻¹"}, {"measurement": "V", "setting": "[1]; [10]", "value": 0.50, "unit": "L/kg"}, {"measurement": "clearance (in words)", "setting": "[1]; [11]", "value": "rapid clearance"}, {"measurement": "mean peak level (plasma citrulline)", "setting": "[1]; first cohort of four participants, intravenous bolus infusion of 20 mg/kg", "value": 259, "unit": "µmol/L"}, {"measurement": "clearance", "setting": "[1]; human, plasma, 20 mg/kg, Average of patients 1-4, 20 mg/kg intravenous bolus", "value": 8.67, "unit": "mL/min/kg"}, {"measurement": "clearance", "setting": "[1]; human, plasma, 20 mg/kg, individual patients, 20 mg/kg intravenous bolus over 5 minutes", "value": 11.7, "unit": "mL/min/kg"}, {"measurement": "concentration at 4 h", "setting": "[1]; human, plasma, 4 hours after the infusion, 20 mg/kg intravenous bolus, read-out: trough level (plasma citrulline)", "value": "20 to 40", "unit": "µM"}, {"measurement": "CL", "setting": "[1]; [12]", "value": "8.5 mL/min/kg and 6.83 mL/min/kg and 7.67 mL/min/kg"}, {"measurement": "Krem", "setting": "[1]; [12]", "value": "1.01 1/hr (2×) and 1.34 1/hr and 0.89 1/hr"}, {"measurement": "V", "setting": "[1]; [12]", "value": "0.70 L/kg and 0.38 L/kg and 0.46 L/kg (2×)"}, {"measurement": "other side effects", "setting": "[2]; 20 mg/kg intravenous bolus, four participants", "value": "no other reported side effects"}, {"measurement": "safety and tolerability", "setting": "[2]; [11]", "value": "safe and well tolerated"}, {"measurement": "transient drop of diastolic blood pressure", "setting": "[2]; one subject, within 30 minutes of study drug, no intervention needed", "value": "> 20", "unit": "%"}, {"measurement": "rise in arginine level (mean increment)", "setting": "[3]", "value": 182, "unit": "%"}, {"measurement": "patients who met the target level of citrulline", "setting": "[4]", "value": "2 out of 3"}, {"measurement": "NO production", "setting": "NO production", "value": "increased NO production"}, {"measurement": "microcirculatory flow", "setting": "NO production", "value": "improved microcirculatory flow"}, {"measurement": "symptoms of well-being", "setting": "[5]; ages 10-18", "value": "dramatic improvements"}, {"measurement": "plasma arginine levels", "setting": "[5]", "value": "raised plasma arginine levels"}, {"measurement": "total leukocyte and segmented neutrophil counts", "setting": "[5]", "value": "reductions in high total leukocyte and high segmented neutrophil counts toward or to within normal limits"}, {"measurement": "circulating arginine concentrations versus oral arginine", "setting": "[6]", "value": "increases circulating arginine concentrations more than oral arginine"}, {"measurement": "safety and plasma citrulline levels", "setting": "[7]; intravenous citrulline (Barr 2007)", "value": "may be administered safely to increase and maintain plasma citrulline levels"}, {"measurement": "safety and plasma citrulline levels", "setting": "[7]; oral citrulline (Smith 2006)", "value": "may be administered safely to increase and maintain plasma citrulline levels"}]}, {"smiles": "[N]=O", "note": "[iNO, nitric oxide]", "values": [{"measurement": "effect on time-to-resolution of vaso-occlusive crisis", "setting": "[8]", "value": "no effect"}]}, {"smiles": "N=C(N)NCCC[C@H](N)C(=O)O", "note": "[arginine]", "values": [{"measurement": "increase of NO formation", "setting": "NO formation; normal controls", "value": 68, "unit": "%"}, {"measurement": "change in NO", "setting": "NO formation; steady-state SCD patients, not overcome by higher doses", "value": "paradoxical decrease in NO"}, {"measurement": "pain scores", "setting": "[9]", "value": "lowered pain scores"}, {"measurement": "parenteral opioid use", "setting": "[9]", "value": "reducing parenteral opioid use"}, {"measurement": "NO production", "setting": "NO production", "value": "did not increase NO production"}]}]}
